This is an account of results in US9221827B2, “Antimicrobial compounds and methods of making and using the same” (Melinta Therapeutics, Inc., priority 2011, dated 2015).

Each structure is given as a SMILES string.

This assay relates to Escherichia coli strain ATCC25922. In words: standard microdilution assay to determine minimum inhibitory concentrations (MICs). Type of assay: cell-based. Conditions: Escherichia coli strain ATCC25922, standard microdilution assay. The essentials: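 MICs come from CLSI-guided microdilution in 100 μl, run alongside reference-strain performance standards. Values appear as "+" or "−" relative to 16 micrograms/ml, with "N/A" marking missing data.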
Turning to `CC(N)CC=Cc1cc(Cl)c(F)c(-c2cc3cn(-c4ccc(C(C)NCCCNC(=N)N)cc4)c(=O)nc3[nH]2)c1` (stereo not shown) [Compound 343], the “E. coli ATCC25922 MIC” value is “+ (a “+” indicates that the compound has an MIC value of 16 micrograms/ml or less)”.

With `C[C@H](N)COCc1cc(SC(F)(F)F)cc(-c2cc3cn(-c4ccc(CNCCCNC(=N)N)cc4)c(=O)nc3[nH]2)c1` [Compound 344], the “E. coli ATCC25922 MIC” value was “+ (a “+” indicates that the compound has an MIC value of 16 micrograms/ml or less)”.

Consider `CC(N)COCc1cc(SC(F)(F)F)cc(-c2cc3cn(-c4ccc(C(C)NCCCNC(=N)N)cc4)c(=O)nc3[nH]2)c1` (stereo not shown) [Compound 345], for which the “E. coli ATCC25922 MIC” value is “+ (a “+” indicates that the compound has an MIC value of 16 micrograms/ml or less)”.

`CC(N)CCCc1cc(Cl)c(F)c(-c2cc3cn(-c4ccc(C(C)NCCCNC(N)=NCC5CC5)cc4)c(=O)nc3[nH]2)c1` (stereo not shown) [Compound 346]: the “E. coli ATCC25922 MIC” value is listed as “+ (a “+” indicates that the compound has an MIC value of 16 micrograms/ml or less)”.

As for `CC(N)CCCc1cc(Cl)c(F)c(-c2cc3cn(-c4ccc(C(C)NCCCNC(N)=NCC5(C)COC5)cc4)c(=O)nc3[nH]2)c1` (stereo not shown) [Compound 347], the “E. coli ATCC25922 MIC” value is recorded as “+ (a “+” indicates that the compound has an MIC value of 16 micrograms/ml or less)”.

As for `CN=C(N)NCCCNC(C)c1ccc(-n2cc3cc(-c4cc(CCCC(C)N)cc(Cl)c4F)[nH]c3nc2=O)cc1` (stereo not shown) [Compound 348], the “E. coli ATCC25922 MIC” value is “+ (a “+” indicates that the compound has an MIC value of 16 micrograms/ml or less)”.

With `N=C(N)NCCCNCc1ccc(-n2cc3cc(-c4cc(CC5CC(CN)C5)cc(C(F)(F)F)c4)[nH]c3nc2=O)cc1` (stereo not shown) [Compound 349], the “E. coli ATCC25922 MIC” value is “+ (a “+” indicates that the compound has an MIC value of 16 micrograms/ml or less)”.

Regarding `CC(NCCCNC(=N)N)c1ccc(-n2cc3cc(-c4cc(CC5CC(CN)C5)cc(C(F)(F)F)c4)[nH]c3nc2=O)cc1` (stereo not shown) [Compound 350], the “E. coli ATCC25922 MIC” value is given as “+ (a “+” indicates that the compound has an MIC value of 16 micrograms/ml or less)”.

For `C[C@H](N)c1ccc(-n2cc3cc(-c4cc(CCC5(CN)CC5)cc(C(F)(F)F)c4)[nH]c3nc2=O)cc1` [Compound 354], the “E. coli ATCC25922 MIC” value is reported as “− (a “−” indicates that the compound has an MIC value greater than 16 micrograms/ml)”.

Consider `C[C@H](N)CCCc1cc(OC(F)(F)F)cc(-c2cc3cn(-c4ccc(CN)cc4)c(=O)nc3[nH]2)c1` [Compound 355], for which the “E. coli ATCC25922 MIC” value is “− (a “−” indicates that the compound has an MIC value greater than 16 micrograms/ml)”.

Take `CC(N)CCCc1cc(OC(F)(F)F)cc(-c2cc3cn(-c4ccc(C(C)N)cc4)c(=O)nc3[nH]2)c1` (stereo not shown) [Compound 356]: the “E. coli ATCC25922 MIC” value is reported as “− (a “−” indicates that the compound has an MIC value greater than 16 micrograms/ml)”.

In the case of `NCc1ccc(-n2cc3cc(-c4cc(CCC5(CN)CC5)cc(SC(F)(F)F)c4)[nH]c3nc2=O)cc1` [Compound 357], the “E. coli ATCC25922 MIC” value is given as “− (a “−” indicates that the compound has an MIC value greater than 16 micrograms/ml)”.

Take `C[C@H](N)c1ccc(-n2cc3cc(-c4cc(CCC5(CN)CC5)cc(SC(F)(F)F)c4)[nH]c3nc2=O)cc1` [Compound 358]: the “E. coli ATCC25922 MIC” value is given as “− (a “−” indicates that the compound has an MIC value greater than 16 micrograms/ml)”.

As for `CCN=C(N)NCCCNC(C)c1ccc(-n2cc3cc(-c4cc(CCCC(C)N)cc(Cl)c4F)[nH]c3nc2=O)cc1` (stereo not shown) [Compound 362], the “E. coli ATCC25922 MIC” value was “+ (a “+” indicates that the compound has an MIC value of 16 micrograms/ml or less)”.

For `CC(N)CCCc1cc(Cl)c(F)c(-c2cc3cn(-c4ccc(C(C)NCCCNC(N)=NC(C)C)cc4)c(=O)nc3[nH]2)c1` (stereo not shown) [Compound 364], the “E. coli ATCC25922 MIC” value was “+ (a “+” indicates that the compound has an MIC value of 16 micrograms/ml or less)”.

On to `CC(N)CCCc1cc(-c2cc3cn(-c4ccc(CNCCCCC(=N)N)cc4)c(=O)nc3[nH]2)cc(C(F)(F)F)c1` (stereo not shown) [Compound 365], for which the “E. coli ATCC25922 MIC” value was “− (a “−” indicates that the compound has an MIC value greater than 16 micrograms/ml)”.
